Data: the supplement of paper PMC10307832

What was measured:
Experiment in all cases: relative viability (nuclei count vs DMSO), 5 days (fraction); higher = more cells survive
201T = test system: 201T
In short: (§1)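 For relative viability, nuclei counts in treated wells were divided by those in vehicle wells. Lung cancer cell lines had been pin-tool dosed in 1536-well plates the day after seeding and cultured for 5 days, then fixed and stained in one step (final 0.05% Triton X-100, 1% formaldehyde, 1 ug/ml Hoechst) and imaged at 4×. Doses were one drug alone or a fixed anchor-drug dose plus five library-drug doses (not always all listed) in √10 steps, and values are duplicate-plate medians.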

A-427 = test system: A-427
In short: as §1

ABC-1 = test system: ABC-1
In short: as §1

BEN = test system: BEN
In short: as §1

CAL-12T = test system: CAL-12T
In short: as §1

H3255 = test system: H3255
In short: as §1

LC-2-ad = test system: LC-2-ad
In short: as §1

LCLC-97TM1 = test system: LCLC-97TM1
In short: as §1

NCI-H1650 = test system: NCI-H1650
In short: as §1

NCI-H1651 = test system: NCI-H1651
In short: as §1

NCI-H1915 = test system: NCI-H1915
In short: as §1

NCI-H1944 = test system: NCI-H1944
In short: as §1

NCI-H2023 = test system: NCI-H2023
In short: as §1

NCI-H2087 = test system: NCI-H2087
In short: as §1

NCI-H441 = test system: NCI-H441
In short: as §1

NCI-H460 = test system: NCI-H460
In short: as §1

NCI-H520 = test system: NCI-H520
In short: as §1

NCI-H596 = test system: NCI-H596
In short: as §1

NCI-H650 = test system: NCI-H650
In short: as §1

NCI-H661 = test system: NCI-H661
In short: as §1

NCI-H727 = test system: NCI-H727
In short: as §1

PC-3 [JPC-3] = test system: PC-3 [JPC-3]
In short: as §1

**Q.** What does the source list for `O=c1cc(N2CCOCC2)oc2c(-c3cccc4c3sc3ccccc34)cccc12` + COc1cc2c(Oc3ccc(NC(=O)C4(C(=O)Nc5ccc(F)cc5)CC4)cc3F)ccnc2cc1OCCCN1CCOCC1 [Foretinib] (partner 0.25 µM)?
**A.** relative viability (201T; first compound 0.01 µM): 1.1; relative viability (201T; first compound 0.03162 µM): 1.13; relative viability (201T; first compound 0.1 µM): 1.1; relative viability (201T; first compound 0.3162 µM): 0.963; relative viability (201T; first compound 1 µM): 1.06; relative viability (A-427; first compound 0.01 µM): 1.04; relative viability (A-427; first compound 0.03162 µM): 1.2; relative viability (A-427; first compound 0.1 µM): 0.972; relative viability (A-427; first compound 0.3162 µM): 1.01; relative viability (A-427; first compound 1 µM): 1; relative viability (ABC-1; first compound 0.01 µM): 1.03; relative viability (ABC-1; first compound 0.03162 µM): 0.943; relative viability (ABC-1; first compound 0.1 µM): 1.48; relative viability (ABC-1; first compound 0.3162 µM): 1.11; relative viability (ABC-1; first compound 1 µM): 1.02; relative viability (BEN; first compound 0.01 µM): 0.548; relative viability (BEN; first compound 0.03162 µM): 0.861; relative viability (BEN; first compound 0.1 µM): 0.57; relative viability (BEN; first compound 0.3162 µM): 0.701; relative viability (BEN; first compound 1 µM): 0.578; relative viability (CAL-12T; first compound 0.01 µM): 1.12; relative viability (CAL-12T; first compound 0.03162 µM): 0.973; relative viability (CAL-12T; first compound 0.1 µM): 1.14; relative viability (CAL-12T; first compound 0.3162 µM): 1.03; relative viability (CAL-12T; first compound 1 µM): 1.11; relative viability (H3255; first compound 0.01 µM): 0.82; relative viability (H3255; first compound 0.03162 µM): 0.952; relative viability (H3255; first compound 0.1 µM): 0.826; relative viability (H3255; first compound 0.3162 µM): 0.83; relative viability (H3255; first compound 1 µM): 0.943; relative viability (LC-2-ad; first compound 0.01 µM): 0.89; relative viability (LC-2-ad; first compound 0.03162 µM): 1.03; relative viability (LC-2-ad; first compound 0.1 µM): 0.921; relative viability (LC-2-ad; first compound 0.3162 µM): 0.877; relative viability (LC-2-ad; first compound 1 µM): 0.795; relative viability (LCLC-97TM1; first compound 0.01 µM): 0.905; relative viability (LCLC-97TM1; first compound 0.03162 µM): 0.926; relative viability (LCLC-97TM1; first compound 0.1 µM): 0.937; relative viability (LCLC-97TM1; first compound 0.3162 µM): 0.897; relative viability (LCLC-97TM1; first compound 1 µM): 0.92; relative viability (NCI-H1650; first compound 0.01 µM): 1.09; relative viability (NCI-H1650; first compound 0.03162 µM): 1.09; relative viability (NCI-H1650; first compound 0.1 µM): 1.04; relative viability (NCI-H1650; first compound 0.3162 µM): 1.21; relative viability (NCI-H1650; first compound 1 µM): 1.19; relative viability (NCI-H1651; first compound 0.01 µM): 0.775; relative viability (NCI-H1651; first compound 0.03162 µM): 0.766; relative viability (NCI-H1651; first compound 0.1 µM): 0.958; relative viability (NCI-H1651; first compound 0.3162 µM): 0.796; relative viability (NCI-H1651; first compound 1 µM): 0.624; relative viability (NCI-H1915; first compound 0.01 µM): 1.12; relative viability (NCI-H1915; first compound 0.03162 µM): 1.1; relative viability (NCI-H1915; first compound 0.1 µM): 1.16; relative viability (NCI-H1915; first compound 0.3162 µM): 1.11; relative viability (NCI-H1915; first compound 1 µM): 1.06; relative viability (NCI-H1944; first compound 0.01 µM): 0.876; relative viability (NCI-H1944; first compound 0.03162 µM): 0.928; relative viability (NCI-H1944; first compound 0.1 µM): 0.829; relative viability (NCI-H1944; first compound 0.3162 µM): 0.89; relative viability (NCI-H1944; first compound 1 µM): 0.821; relative viability (NCI-H2023; first compound 0.01 µM): 0.719; relative viability (NCI-H2023; first compound 0.03162 µM): 0.803; relative viability (NCI-H2023; first compound 0.1 µM): 0.763; relative viability (NCI-H2023; first compound 0.3162 µM): 0.873; relative viability (NCI-H2023; first compound 1 µM): 0.636; relative viability (NCI-H2087; first compound 0.01 µM): 1.09; relative viability (NCI-H2087; first compound 0.03162 µM): 1.4; relative viability (NCI-H2087; first compound 0.1 µM): 1.28; relative viability (NCI-H2087; first compound 0.3162 µM): 1.24; relative viability (NCI-H2087; first compound 1 µM): 1.2; relative viability (NCI-H441; first compound 0.01 µM): 1.17; relative viability (NCI-H441; first compound 0.03162 µM): 0.864; relative viability (NCI-H441; first compound 0.1 µM): 1.02; relative viability (NCI-H441; first compound 0.3162 µM): 0.992; relative viability (NCI-H441; first compound 1 µM): 0.969; relative viability (NCI-H460; first compound 0.01 µM): 0.981; relative viability (NCI-H460; first compound 0.03162 µM): 1.03; relative viability (NCI-H460; first compound 0.1 µM): 0.987; relative viability (NCI-H460; first compound 0.3162 µM): 0.985; relative viability (NCI-H460; first compound 1 µM): 1.04; relative viability (NCI-H520; first compound 0.01 µM): 0.896; relative viability (NCI-H520; first compound 0.03162 µM): 0.86; relative viability (NCI-H520; first compound 0.1 µM): 0.725; relative viability (NCI-H520; first compound 0.3162 µM): 0.774; relative viability (NCI-H520; first compound 1 µM): 0.734; relative viability (NCI-H596; first compound 0.01 µM): 0.838; relative viability (NCI-H596; first compound 0.03162 µM): 0.946; relative viability (NCI-H596; first compound 0.1 µM): 0.821; relative viability (NCI-H596; first compound 0.3162 µM): 0.96; relative viability (NCI-H596; first compound 1 µM): 0.918; relative viability (NCI-H650; first compound 0.03162 µM): 1.07; relative viability (NCI-H650; first compound 0.1 µM): 0.918; relative viability (NCI-H650; first compound 0.3162 µM): 1.01; relative viability (NCI-H650; first compound 1 µM): 0.992; relative viability (NCI-H661; first compound 0.01 µM): 0.996; relative viability (NCI-H661; first compound 0.03162 µM): 1.05; relative viability (NCI-H661; first compound 0.1 µM): 1.03; relative viability (NCI-H661; first compound 0.3162 µM): 0.947; relative viability (NCI-H661; first compound 1 µM): 1.03; relative viability (NCI-H727; first compound 0.01 µM): 1.05; relative viability (NCI-H727; first compound 0.03162 µM): 0.822; relative viability (NCI-H727; first compound 0.1 µM): 0.908; relative viability (NCI-H727; first compound 0.3162 µM): 1; relative viability (NCI-H727; first compound 1 µM): 0.865; relative viability (PC-3 [JPC-3]; first compound 0.01 µM): 1.01; relative viability (PC-3 [JPC-3]; first compound 0.03162 µM): 1.08; relative viability (PC-3 [JPC-3]; first compound 0.1 µM): 1.05; relative viability (PC-3 [JPC-3]; first compound 0.3162 µM): 1.01; relative viability (PC-3 [JPC-3]; first compound 1 µM): 1.06
